Laboratory results: US20070270418A1, “Inhibitors of P38 and Methods of Using the Same” (priority 2003, published 2007)
Like-named read-outs stand apart in the source and are kept apart here.

Key:
p38α = target: T1, p38α (Homo sapiens, UniProt Q16539); test: p38 MAP Kinase assay, ATF2 phosphorylation (ELISA); type: biochemical; conditions: 40 μM ATP
T1 construct: p38 MAP Kinases are recombinant human full-length proteins with an amino-terminal GST fusion; GST (N); purchased Upstate (Charlottesville, Va.); host or cells: E. coli
Outline: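 Recombinant full-length GST-tagged human p38α (6 ng) pre-incubated 15 min at room temperature with compound, then reacted 30 min at 37° C with 40 μM ATP and 1.25 μM GST-ATF2 (aa 19-96) in HEPES pH 7.5/MgCl2 buffer. EDTA stop; ATF2 Thr69 phosphorylation measured by anti-phospho-ATF2 ELISA at 450 nm.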

[1] = test system: TNFα release from THP-1 cells; test: TNFα release from LPS-stimulated THP-1 cells; type: cell-based; conditions: Homo sapiens, THP-1, 18 h
From the text: Compounds of the invention are screened for the ability to inhibit TNFα and IL-1β release from THP-1 cells stimulated with lipopolysaccharide (LPS) in vitro. The ability of compounds to inhibit TNFα and IL-1β release in this in vitro assay is correlated with the inhibition of p38 activity and TNFα and IL-1β expression in vivo, and is therefore an indicator of potential in vivo therapeutic activity (Lee J. C. et al, Ann. N.Y. Acad. Sci. 696: 149-170, 1993 and Nature, 372: 739-746, 1994).
THP-1 cells from ATCC (TIB202) are maintained at 37° C., 5% CO2 in RPMI 1640 media (MediaTech, Herndon, Va.) containing 4.5 g/L glucose, supplemented with 10% fetal bovine serum, 1% penicillin/streptomycin and 50 μM β-mercaptoethanol.
Test compounds are initially dissolved in RPMI media with 1% DMSO (v/v). Compounds are then serially diluted in RPMI media for all subsequent dilutions. The assay is performed under sterile conditions. THP-1 cells at a culture density of 6-8×10^5 cells/ml are collected and resuspended in the RPMI media at 10^6 cells/ml. 100 μl of resuspended cells are added to each well, which contain 100 μl of a test compound. Test compounds are prepared at twice the final concentration. Final DMSO concentration is no more than 0.5% (v/v). Cells are preincubated with compound for 30 minutes at 37° C., 5% CO2 prior to stimulation with lipopolysaccharide (LPS) (Sigma L-2880, 4 mg/ml stock in PBS). The final LPS concentration in each well is 10 or 30 μg/ml for TNFα and IL-1β release, respectively. Unstimulated control cell suspensions receive PBS vehicle only. Cell mixtures are incubated for 18 or 48 hours for TNFα and IL-1β release, respectively. 150 μl of supernatants are taken and transferred to a fresh plate and stored at −20° C. until further analysis.

[2] = LPS 10 μg/ml, 18 hours, read-out: TNFα (THP-1) IC50

T1 sequence (Q16539 whole entry, the tested form may be a part): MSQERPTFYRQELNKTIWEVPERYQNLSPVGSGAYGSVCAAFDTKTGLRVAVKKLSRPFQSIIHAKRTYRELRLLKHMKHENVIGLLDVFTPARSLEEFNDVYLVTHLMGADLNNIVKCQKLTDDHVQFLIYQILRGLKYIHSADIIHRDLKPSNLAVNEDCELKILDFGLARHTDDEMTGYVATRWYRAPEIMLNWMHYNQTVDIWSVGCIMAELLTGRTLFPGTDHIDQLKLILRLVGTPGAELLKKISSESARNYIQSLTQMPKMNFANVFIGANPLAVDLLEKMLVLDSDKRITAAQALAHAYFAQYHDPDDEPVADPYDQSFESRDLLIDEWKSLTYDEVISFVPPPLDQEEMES

Structure (SMILES) | IC50 (p38α) [nM] | IC50 [1, 2] [nM] | IC50 ([1]; read-out: TNFα (THP-1) IC50 (nM)) [nM]
Cc1ccc(-c2nc3sccn3c2-c2ccnc(N[C@H](CO)C(C)C)n2)cc1 [CCXI] | 147 | 58.9 | –
Nc1ccc(CCNc2nccc(-c3c(-c4ccc(F)cc4)nc4sccn34)n2)cc1 [CCXLIII] | 2.19 | 19.5 | –
CCC(O)CNc1nccc(-c2c(-c3ccc(F)cc3)nc3sccn23)n1 (centres unmarked) [CCXLII] | 3.28 | 3.83 | –
CN(C)CC(C)(C)CNc1nccc(-c2c(-c3ccc(F)cc3)nc3sccn23)n1 [CCXLIV] | 11.4 | 5.98 | –
Fc1ccc(-c2nc3sccn3c2-c2ccnc(NCCN3CCOCC3)n2)cc1 [CCXLIX] | 31.6 | 20.3 | –
CC(C)(CO)Nc1nccc(-c2c(-c3ccc(F)cc3)nc3sccn23)n1 [CCXLI] | 2.81 | 5.18 | –
OC1(CNc2nccc(-c3c(-c4ccc(F)cc4)nc4sccn34)n2)CCCc2ccccc21 (centres unmarked) [CCXLVIII] | 8.39 | 20.8 | –
Fc1ccc(CCNc2nccc(-c3c(-c4ccc(F)cc4)nc4sccn34)n2)cc1 [CCXLVII] | 4.84 | 33.2 | –
Oc1cccc(C(O)CNc2nccc(-c3c(-c4ccc(F)cc4)nc4sccn34)n2)c1 (centres unmarked) [CCXLVI] | 3.06 | 23.9 | –
Fc1ccc(-c2nc3sccn3c2-c2ccnc(NCCN3CCCCC3)n2)cc1 [CCXLV] | 82.1 | 14.2 | –
Fc1ccc(-c2nc3sccn3c2-c2ccnc(NCc3nc4ccccc4[nH]3)n2)cc1 [CCXL] | 135 | 3300 | –
Fc1ccc(-c2nc3sccn3c2-c2ccnc(NCCc3ccncc3)n2)cc1 [CCXVIII] | 5.87 | 4.46 | –
CCOC(=O)N1CCC(Nc2nccc(-c3c(-c4ccc(F)cc4)nc4sccn34)n2)CC1 [CCXVII] | 1.19 | 7.84 | –
CCCNc1nccc(-c2c(-c3ccc(F)cc3)nc3sccn23)n1 [CCXVI] | 4.68 | 5.15 | –
COCC(C)Nc1nccc(-c2c(-c3ccc(F)cc3)nc3sccn23)n1 (centres unmarked) [CCXV] | 2.32 | 8.58 | –
CCCC[C@@H](CO)Nc1nccc(-c2c(-c3ccc(F)cc3)nc3sccn23)n1 [CCXXII] | 5.45 | 49.6 | –
O[C@H]1CC[C@H](Nc2nccc(-c3c(-c4ccc(F)cc4)nc4sccn34)n2)CC1 [CCXXI] | 1.57 | 5.56 | –
CC(C)(C)OC(=O)N1CCC(Nc2nccc(-c3c(-c4ccc(F)cc4)nc4sccn34)n2)CC1 [CCXXXIII, 4-{4-[6-(4-fluorophenyl)-imidazo[2,1-b]thiazol-5-yl]-pyrimidin-2-ylamino}-piperidine-1-carboxylic acid tert-butyl ester] | 2.24 | 76.9 | –
CC(C)[C@H](CO)Nc1nccc(-c2c(-c3ccc(F)cc3)nc3sccn23)n1 [CCXXXII] | 2.06 | 11.1 | –
Oc1ccc(CCNc2nccc(-c3c(-c4ccc(F)cc4)nc4sccn34)n2)cc1 [CCXXXIX] | 5.82 | 21 | –
CC(C)[C@@H](CO)Nc1nccc(-c2c(-c3ccc(F)cc3)nc3sccn23)n1 [CCXXXI] | 1.13 | 5.67 | –
CC(C)(C)OC(=O)N1CCC(CNc2nccc(-c3c(-c4ccc(F)cc4)nc4sccn34)n2)CC1 [CCXXXVIII] | 87.6 | 162 | –
CC(C)(C)OC(=O)N1CCCCC1CNc1nccc(-c2c(-c3ccc(F)cc3)nc3sccn23)n1 (centres unmarked) [CCXXXVII] | 107 | 113 | –
CC(C)(C)OC(=O)N1CCCC(CNc2nccc(-c3c(-c4ccc(F)cc4)nc4sccn34)n2)C1 (centres unmarked) [CCXXXVI] | 81.8 | 162 | –
CC[C@H](CO)Nc1nccc(-c2c(-c3ccc(F)cc3)nc3sccn23)n1 [CCXXXV] | 2.08 | 2.95 | –
CC(C)(CO)CNc1nccc(-c2c(-c3ccc(F)cc3)nc3sccn23)n1 [CCXX] | 1.56 | 2.41 | –

Structure (SMILES) | IC50 (p38α) [nM] | IC50 [1, 2] [nM] | IC50 ([1]; read-out: TNFα (THP-1) IC50 (nM)) [nM]
COc1cccc(-c2nc3sccn3c2-c2ccnc(N[C@H](CO)C(C)C)n2)c1 [CC] | 112 | 93.8 | –
CC(C)[C@H](CO)Nc1nccc(-c2c(-c3ccc(F)cc3)nc3occn23)n1 [CIII] | 7.57 | 20 | –
C[C@H](O)[C@H](CO)Nc1nccc(-c2c(-c3ccc(F)cc3)nc3occn23)n1 [CIV] | 8.62 | – | 6
CCC(CO)(CO)Nc1nccc(-c2c(-c3ccc(F)cc3)nc3occn23)n1 [CIX] | 30.5 | 19.8 | –
CCOc1nccc(-c2c(-c3ccc(F)cc3)nc3sccn23)n1 [CLI] | 122 | 284 | –
COc1nccc(-c2c(-c3ccc(F)cc3)nc3sccn23)n1 [CLV] | 286 | 402 | –
CC(C)C(CO)Nc1nccc(-c2c(-c3ccc(F)cc3)nc3sccn23)n1 (centres unmarked) [CLXXII] | 4.67 | 48.1 | –
COC(=O)[C@@H](CC(C)C)Nc1nccc(-c2c(-c3ccc(F)cc3)nc3sccn23)n1 [CLXXI] | 14.9 | 3970 | –
OC[C@H](Cc1ccccc1)Nc1nccc(-c2c(-c3ccc(F)cc3)nc3sccn23)n1 [CLXXXI] | 176 | 138 | –
CCC(CO)(CO)Nc1nccc(-c2c(-c3ccc(F)cc3)nc3sccn23)n1 [CLXXX] | 80.8 | 57.4 | –
Fc1ccc(-c2nc3sccn3c2-c2ccnc(OCC3CC3)n2)cc1 [CL] | 256 | 218 | –
CCC[C@@H](CO)Nc1nccc(-c2c(-c3ccc(F)cc3)nc3occn23)n1 [CVIII] | 3.11 | 11.7 | –
C[C@@H](O)[C@@H](CO)Nc1nccc(-c2c(-c3ccc(F)cc3)nc3occn23)n1 [CVII] | 63.8 | 112 | –
CCC[C@H](CO)Nc1nccc(-c2c(-c3ccc(F)cc3)nc3occn23)n1 [CVI] | 5.2 | 30.6 | –
C[C@H](CO)Nc1nccc(-c2c(-c3ccc(F)cc3)nc3occn23)n1 [CV] | 3.09 | 8.67 | –
CC(CO)Nc1nccc(-c2c(-c3ccc(F)cc3)nc3sccn23)n1 (centres unmarked) [CXCIII] | 6.19 | 8.38 | –
COc1ccc(CCNc2nccc(-c3c(-c4ccc(F)cc4)nc4occn34)n2)cc1 [CXIII] | 7.88 | 127 | –
Oc1ccc(CCNc2nccc(-c3c(-c4ccc(F)cc4)nc4occn34)n2)cc1 [CXII] | 3.45 | 13.1 | –
Fc1ccc(-c2nc3occn3c2-c2ccnc(NCc3nc4ccccc4[nH]3)n2)cc1 [CXIV] | 183 | 913 | –
CCCC[C@H](CO)Nc1nccc(-c2c(-c3ccc(F)cc3)nc3occn23)n1 [CXI] | 11.2 | 65.9 | –
Fc1ccc(CNc2nccc(-c3c(-c4ccc(F)cc4)nc4sccn34)n2)cc1 [CXLIV] | 54.1 | 182 | –
Fc1ccc(-c2nc3sccn3c2-c2ccnc(OCc3ccccc3)n2)cc1 [CXLIX] | 152 | 391 | –
CC(C)(CO)Nc1nccc(-c2c(-c3ccc(F)cc3)nc3occn23)n1 [CXVIII] | 2.91 | 26.3 | –
OC1(CNc2nccc(-c3c(-c4ccc(F)cc4)nc4occn34)n2)CCCCC1 [CXVII] | 20.6 | 47 | –
Fc1ccc(-c2nc3occn3c2-c2ccnc(NCCN3CCCCC3)n2)cc1 [CXVI] | 236 | 376 | –
Nc1ccc(CCNc2nccc(-c3c(-c4ccc(F)cc4)nc4occn34)n2)cc1 [CXV] | 1.73 | 41.9 | –
